Key:
[1] = human, in vivo
[2] = Human pharmacokinetics
[3] = test system: CYP 1A2, 2A6, 2B6, 2C8, 2C9, 2C19, 2D6, 2E1, 3A4/5, or 4A9/11; assay: CYP inhibition in human liver microsomes; conditions: therapeutic plasma concentrations

In the case of `O=C(Nc1c(Cl)c[n+]([O-])cc1Cl)c1ccc(OC(F)F)c(OCC2CC2)c1` [roflumilast N-oxide], the “Absorption or pharmacokinetics on co-administration with an antacid” value [1] is reported as “did not alter”, the Linearity of pharmacokinetics ([2]; 250 mcg to 1,000 mcg) is reported as “dose-proportional” and the “Time of maximum plasma concentrations after dosing” value ([2]; fasted state) is reported as “about eight”. The Cmax ([2]; in vivo) was 8.5 ng/mL, the “Plasma AUC” value ([2]; in vivo) was 315 ugxh/L and the “Time to steady state plasma concentrations” value ([2]; once daily dosing) was roughly 6 days. For the same molecule, the “Median plasma effective half-life” value ([2]; oral dose) was roughly 30 h and the “Inhibition of CYP 1A2, 2A6, 2B6, 2C8, 2C9, 2C19, 2D6, 2E1, 3A4/5, or 4A9/11” value [3] was “do not inhibit”.

— patent US20120052122A1, “Treatment Of Chronic Obstructive Pulmonary Disease With Phosphodiesterase-4 Inhibitor” (Nycomed GmbH, priority 2010, published 2012)
